From patent US20220340597A1, “HEXAHYDRO-1H-PYRAZINO[1,2-A]PYRAZINE COMPOUNDS FOR THE TREATMENT OF AUTOIMMUNE DISEASE” (Hoffmann-La Roche Inc., priority 2019, published 2022)

Target: T1, human TLR9 (Homo sapiens, UniProt Q9NR96)
T1 construct: host or cells: HEK293 (HEK-Blue hTLR9)
T1 sequence (Q9NR96 26-1032): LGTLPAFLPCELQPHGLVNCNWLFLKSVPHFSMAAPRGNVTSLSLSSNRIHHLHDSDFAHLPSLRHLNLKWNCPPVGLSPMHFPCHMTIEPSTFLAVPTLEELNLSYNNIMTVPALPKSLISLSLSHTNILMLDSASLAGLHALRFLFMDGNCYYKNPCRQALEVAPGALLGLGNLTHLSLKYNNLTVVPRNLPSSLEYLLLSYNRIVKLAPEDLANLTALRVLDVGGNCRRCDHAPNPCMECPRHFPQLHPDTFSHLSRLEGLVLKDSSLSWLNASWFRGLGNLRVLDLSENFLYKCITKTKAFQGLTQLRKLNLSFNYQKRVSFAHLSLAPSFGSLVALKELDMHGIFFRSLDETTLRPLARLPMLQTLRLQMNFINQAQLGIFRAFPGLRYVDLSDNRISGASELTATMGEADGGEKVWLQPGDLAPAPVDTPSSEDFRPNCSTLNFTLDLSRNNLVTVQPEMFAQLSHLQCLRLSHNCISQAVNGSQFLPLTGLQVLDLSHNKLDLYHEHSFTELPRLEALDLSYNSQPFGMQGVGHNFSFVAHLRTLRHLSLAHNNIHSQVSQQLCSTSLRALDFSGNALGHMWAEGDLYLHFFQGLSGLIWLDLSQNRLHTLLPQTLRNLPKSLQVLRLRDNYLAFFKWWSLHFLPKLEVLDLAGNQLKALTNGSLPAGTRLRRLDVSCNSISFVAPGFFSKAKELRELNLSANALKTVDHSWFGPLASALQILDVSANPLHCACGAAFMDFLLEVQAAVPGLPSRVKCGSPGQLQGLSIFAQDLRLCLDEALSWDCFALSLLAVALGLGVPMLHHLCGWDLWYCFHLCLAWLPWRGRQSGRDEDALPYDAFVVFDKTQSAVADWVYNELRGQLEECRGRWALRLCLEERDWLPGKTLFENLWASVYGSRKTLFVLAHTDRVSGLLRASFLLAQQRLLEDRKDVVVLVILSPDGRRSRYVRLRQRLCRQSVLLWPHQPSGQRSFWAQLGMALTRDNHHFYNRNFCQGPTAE
Assay: HEK293-Blue-hTLR-9 cells assay
Format: cell-based
Settings: HEK293-Blue-hTLR9 cells, ODN2006 stimulation, 20 hrs, SEAP reporter; read-out: HEK/hTLR9 IC50
Protocol: The following tests were carried out in order to determine the activity of the compounds of formula (I) and (Ia) in HEK293-Blue-hTLR-7/8/9 cells assay.
HEK293-Blue-hTLR-9 Cells Assay:
A stable HEK293-Blue-hTLR-9 cell line was purchased from InvivoGen (Cat. #: hkb-htlr9, San Diego, Calif., USA). These cells were originally designed for studying the stimulation of human TLR9 by monitoring the activation of NF-κB. A SEAP (secreted embryonic alkaline phosphatase) reporter gene was placed under the control of the […] minimal promoter fused to five NF-κB and AP-1-binding sites. The SEAP was induced by activating NF-κB and AP-1 via stimulating HEK-Blue hTLR9 cells with TLR9 ligands. Therefore, the reporter expression was declined by TLR9 antagonist under the stimulation of a ligand, such as ODN2006 (Cat. #: tlr1-2006-1, Invivogen, San Diego, Calif., USA), for incubation of 20 hrs. The cell culture supernatant SEAP reporter activity was determined using QUANTI-Blue™ kit (Cat. #: rep-qb1, Invivogen, San Diego, Calif., USA) at a wavelength of 640 nm, a detection medium that turns purple or blue in the presence of alkaline phosphatase.
Then 20 μL of the supernatant from each well was incubated with 180 μL Quanti-blue substrate solution at 37° C. for 2 h and the absorbance was read at 620-655 nm using a spectrophotometer. The signaling pathway that TLR9 activation leads to downstream NF-κB activation has been widely accepted, and therefore similar reporter assay was modified for evaluating TLR9 antagonist.

IC50 [µM] | Compound
0.069 | C[C@@H]1CN(c2ccc(C#N)c3ncccc23)C[C@@H]2CN(Cc3cnc4c(c3)CNCC4)CCN21 [Example 6, 5-[(4R,9aS)-4-methyl-8-(5,6,7,8-tetrahydro-1,6-naphthyridin-3-ylmethyl)-3,4,6,7,9,9a-hexahydro-1H-pyrazino[1,2-a]pyrazin-2-yl]quinoline-8-carbonitrile]
< 0.032 | C[C@@H]1CN(c2ccc(C#N)c3ncccc23)C[C@@H]2CN(CCc3ccc(N4CCNCC4)cc3)CCN21 [Example 7, 5-[(4R,9aS)-4-methyl-8-[2-(4-piperazin-1-ylphenyl)ethyl]-3,4,6,7,9,9a-hexahydro-1H-pyrazino[1,2-a]pyrazin-2-yl]quinoline-8-carbonitrile]
0.043 | C[C@@H]1CN(c2ccc(C#N)c3ncccc23)C[C@@H]2CN(Cc3ccc4c(c3)CCNC4)CCN21 [Example 10, 5-[(4R,9aS)-4-methyl-8-(1,2,3,4-tetrahydroisoquinolin-6-ylmethyl)-3,4,6,7,9,9a-hexahydro-1H-pyrazino[1,2-a]pyrazin-2-yl]quinoline-8-carbonitrile]
0.037 | C[C@@H]1CN(c2ccc(C#N)c3ncccc23)C[C@@H]2CN(CCc3ccc(N4CCNCC4)nc3)CCN21 [Example 11, 5-[(4R,9aS)-4-methyl-8-[2-(6-piperazin-1-yl-3-pyridyl)ethyl]-3,4,6,7,9,9a-hexahydro-1H-pyrazino[1,2-a]pyrazin-2-yl]quinoline-8-carbonitrile]
0.04 | CO[C@@H]1CN(c2ccc(CCN3CCN4[C@@H](C3)CN(c3ccc(C#N)c5ncccc35)C[C@H]4C)nc2)C[C@H]1N [Example 13, 5-[(4R,9aS)-8-[2-[5-[(3R,4R)-3-amino-4-methoxy-pyrrolidin-1-yl]-2-pyridyl]ethyl]-4-methyl-3,4,6,7,9,9a-hexahydro-1H-pyrazino[1,2-a]pyrazin-2-yl]quinoline-8-carbonitrile]
0.041 | C[C@@H]1CN(c2ccc(C#N)c3ncccc23)C[C@@H]2CN(Cc3ccc(N4CCCNCC4)nc3)CCN21 [Example 15, 5-[(4R,9aS)-8-[[6-(1,4-diazepan-1-yl)-3-pyridyl]methyl]-4-methyl-3,4,6,7,9,9a-hexahydro-JH-pyrazino[1,2-a]pyrazin-2-yl]quinoline-8-carbonitrile]
0.12 | C[C@@H]1CN(c2ccc(C#N)c3ncccc23)C[C@@H]2CN(c3nccc4c3CCNC4)CCN21 [Example 16, 5-[(4R,9aR)-4-methyl-8-(5,6,7,8-tetrahydro-2,6-naphthyridin-1-yl)-3,4,6,7,9,9a-hexahydro-1H-pyrazino[1,2-a]pyrazin-2-yl]quinoline-8-carbonitrile]
0.048 | C[C@@H]1CN(c2ccc(C#N)c3ncccc23)C[C@@H]2CN(CCc3ccc(N4C[C@@H](N)[C@@H](F)C4)cn3)CCN21 [Example 19, 5-[(4R,9aS)-8-[2-[5-[(3R,4S)-3-amino-4-fluoro-pyrrolidin-1-yl]-2-pyridyl]ethyl]-4-methyl-3,4,6,7,9,9a-hexahydro-1H-pyrazino[1,2-a]pyrazin-2-yl]quinoline-8-carbonitrile]
0.056 | C[C@@H]1CN(c2ccc(C#N)c3ncccc23)C[C@@H]2CN(CCc3ccc(N4CCN[C@@H](C)C4)cn3)CCN21 [Example 20, 5-[(4R,9aS)-4-methyl-8-[2-[5-[(3S)-3-methylpiperazin-1-yl]-2-pyridyl]ethyl]-3,4,6,7,9,9a-hexahydro-1H-pyrazino[1,2-a]pyrazin-2-yl]quinoline-8-carbonitrile]
0.056 | C[C@@H]1CN(c2ccc(C#N)c3ncccc23)C[C@@H]2CN(CCc3cccc(N4CCN[C@@H](C)C4)n3)CCN21 [Example 21, 5-[(4R,9aS)-4-methyl-8-[2-[6-[(3S)-3-methylpiperazin-1-yl]-2-pyridyl]ethyl]-3,4,6,7,9,9a-hexahydro-1H-pyrazino[1,2-a]pyrazin-2-yl]quinoline-8-carbonitrile]
0.045 | CO[C@H]1CN(c2ccc(CCN3CCN4[C@@H](C3)CN(c3ccc(C#N)c5ncccc35)C[C@H]4C)cn2)C[C@H]1N [Example 24, 5-[(4R,9aS)-8-[2-[6-[(3R,4S)-3-amino-4-methoxy-pyrrolidin-1-yl]-3-pyridyl]ethyl]-4-methyl-3,4,6,7,9,9a-hexahydro-1H-pyrazino[1,2-a]pyrazin-2-yl]quinoline-8-carbonitrile]
0.087 | CO[C@@H]1CN(c2ccc(CCN3CCN4[C@@H](C3)CN(c3ccc(C#N)c5ncccc35)C[C@H]4C)cc2)C[C@H]1N [Example 26, 5-[(4R,9aS)-8-[2-[4-[(3R,4R)-3-amino-4-methoxy-pyrrolidin-1-yl]phenyl]ethyl]-4-methyl-3,4,6,7,9,9a-hexahydro-1H-pyrazino[1,2-a]pyrazin-2-yl]quinoline-8-carbonitrile]
0.049 | C[C@@H]1CN(c2ccc(C#N)c3ncccc23)C[C@@H]2CN(Cc3cccc(N4CCNCC4)n3)CCN21 [Example 27, 5-[(4R,9aS)-4-methyl-8-[(6-piperazin-1-yl-2-pyridyl)methyl]-3,4,6,7,9,9a-hexahydro-1H-pyrazino[1,2-a]pyrazin-2-yl]quinoline-8-carbonitrile]
0.098 | C[C@@H]1CN(c2ccc(C#N)c3ncccc23)C[C@@H]2CN(CCc3ccc(N4CC5(CNCCO5)C4)cc3)CCN21 [Example 28, 5-[(4R,9aS)-4-methyl-8-[2-[4-(5-oxa-2,8-diazaspiro[3.5]nonan-2-yl)phenyl]ethyl]-3,4,6,7,9,9a-hexahydro-1H-pyrazino[1,2-a]pyrazin-2-yl]quinoline-8-carbonitrile]
0.085 | Cc1cc(N2CCN3[C@@H](C2)CN(c2ccc(C#N)c4ncccc24)C[C@H]3C)nc(N2CCNCC2)n1 [Example 31, 5-[(4R,9aR)-4-methyl-8-(6-methyl-2-piperazin-1-yl-pyrimidin-4-yl)-3,4,6,7,9,9a-hexahydro-1H-pyrazino[1,2-a]pyrazin-2-yl]quinoline-8-carbonitrile]
0.034 | C[C@@H]1CN(c2ccc(C#N)c3ncccc23)C[C@@H]2CN(c3ccnc(N4CCNCC4)c3)CCN21 [Example 32, 5-[(4R,9aS)-4-methyl-8-(2-piperazin-1-yl-4-pyridyl)-3,4,6,7,9,9a-hexahydro-1H-pyrazino[1,2-a]pyrazin-2-yl]quinoline-8-carbonitrile]
0.064 | C[C@@H]1CN(c2ccc(C#N)c3ncccc23)C[C@@H]2CN(c3ccnc(N4CCNCC4)n3)CCN21 [Example 33, 5-[(4R,9aR)-4-methyl-8-(2-piperazin-1-ylpyrimidin-4-yl)-3,4,6,7,9,9a-hexahydro-1H-pyrazino[1,2-a]pyrazin-2-yl]quinoline-8-carbonitrile]
0.098 | N#Cc1ccc(N2CCN3CCN(c4cccc5c4CNC5)CC3C2)c2cccnc12 (centres unmarked) [Example 35, 5-(8-isoindolin-4-yl-3,4,6,7,9,9a-hexahydro-1H-pyrazino[1,2-a]pyrazin-2-yl)quinoline-8-carbonitrile]
< 0.032 | C[C@@H]1CN(c2ccc(C#N)c3ncccc23)C[C@@H]2CN(c3ccnc(N4C[C@@H](F)[C@@H](N)C4)c3)CCN21 [Example 40, 5-[(4R,9aS)-8-[2-[(3S,4R)-3-amino-4-fluoro-pyrrolidin-1-yl]-4-pyridyl]-4-methyl-3,4,6,7,9,9a-hexahydro-1H-pyrazino[1,2-a]pyrazin-2-yl]quinoline-8-carbonitrile]
0.078 | Cc1cnc(N2CCN3[C@@H](C2)CN(c2ccc(C#N)c4ncccc24)C[C@H]3C)nc1N1CCNCC1 [Example 43, 5-[(4R,9aR)-4-methyl-8-(5-methyl-4-piperazin-1-yl-pyrimidin-2-yl)-3,4,6,7,9,9a-hexahydro-1H-pyrazino[1,2-a]pyrazin-2-yl]quinoline-8-carbonitrile]
